One data set relates to CCR5 (HIV-1BAL). The experiment in a line: p24^gag antigen release assay using PBMCs, CCR5 strain. The class given is cell-based. As to conditions: PBMC based p24^gag antigen release assay.
Data set [1] concerns the target GRFN-1 (self-association). The experiment in a line: SPR self-association of GRFN-1. Particulars: BIAcore CM5 chip, HBS-EP pH = 7.4, KD±SEM, average from at least 5 independent experiments. The format is binding. Background: Surface plasmon resonance follows binding to a sensor surface in real time, without labels.
Procedure: Surface plasmon resonance (SPR) studies were performed on a BIAcore 3000 system (BiaCore AB, Piscataway, NJ), using BIAcore CM5 sensor chips and HBS-EP running buffer (pH = 7.4) containing 10 mM HEPES, 150 mM NaCl, 3 mM EDTA, and 0.005% polysorbate 20. Proteins/peptides were immobilized on a CM5 sensor chip using the amine coupling method. The chip was activated by mixing 400 mM N-ethyl-N-(3-dimethylaminopropyl)-carbodiimide hydrochloride and 100 mM N-hydroxysuccinimide. Residual reactive groups on the chip surface were blocked using 1.0 M ethanolamine/HCl (pH = 8.5). The flow cell-1 chamber, which served as a control, lacked immobilized protein but was treated with N-ethyl-N-(3-dimethylaminopropyl)-carbodiimide hydrochloride, N-hydroxysuccinimide, and ethanolamine/HCl. Binding signals were corrected for nonspecific binding by subtracting the flow cell-1 signal. To regenerate chip surfaces, bound ligands were removed with 10 mM HCl. Data were analyzed with BIAevaluation 4.1 software (Biacore, Piscataway, NJ).
Data set [2] is classed as physicochemical. As to conditions: for Molecular weight range: 20 mM NaH2PO4, 20°C, 280 nm; for OD280 lost on centrifugation / weight-average molecular weight: 20 mM NaH2PO4. As for the experimental part: Sedimentation equilibrium was performed at 20°C in a Beckman Optima XL-A analytical ultracentrifuge using absorption optics at 280 nm. Twelve mm path length double sector cells were used for all samples. Samples (OD280 = 0.7 and OD280 = 0.15)) were in 20 mM NaH2PO4. Sedimentation equilibrium profiles were measured at speeds of 3000, 7000, 11000, 24000 and 36000 rpm. The data were fitted with a nonlinear least-squares exponential fit for a single ideal species using the Beckman Origin-based software (Version 3.01 A partial specific volume of 0.739 was estimated from the amino acid composition using 0.9 (the partial specific volume of a leucine residue) for the partial specific volume of cyclohexylalanine and cyclohexylglycine. It was then corrected to 20°C [47].

Data set [3] deals with human red blood cells (hRBCs). The class given is cell-based. As for the experimental part: Heparinized fresh blood (∼3 ml) was collected from an anonymous donor. A 200 µl aliquot was removed and washed 4× with 800 µl of cold PBS at RT for 3 min at ∼500×g. After each centrifugation, 780 µl of supernatant was removed. After the last wash, the supernatant was completely removed and the packed red blood cells were diluted 1∶20 in PBS to prepare a 5% v/v stock suspension of hRBCs.
All experiments were carried out in triplicate using 96-well microplate (Costar 3596) and the OD at 700 nm was monitored every 30 s. employing the SpectraMAX 250 microplate reader (Molecular Devices, Sunnyvale, CA). Controls included PBS, untreated human RBCs, and human RBCs +2.5% Triton (100% lysis). The hemolytic effect was calculated as follows: [drawing 1]

Like-named read-outs stand apart in the source and are kept apart here.

Consider one substance from PMC3002932 (PLoS ONE, 2010).

In the case of “Cha-SC-Chg-R-Chg-RSGSY-Cha-DN-Chg-R-Chg-(D)Cys-CONH2 (disulfide) [GRFN-1]”, the “antiviral activity (in words)” value in the data set on CCR5 (HIV-1BAL) is given as “maintained their antiviral activity”. In addition, the “KD (self-association)” value in data set [1] was 500 ± 130 nM. The Molecular weight range entry in data set [2] (3K rpm (limited data)) is listed as “∼150000 Da”; in data set [2] (7K rpm), 68500–84700 Da; in data set [2] (11K rpm), 8950–38100 Da; in data set [2] (24K rpm), 2541–6200 Da; in data set [2] (36K rpm), 2245–2940 Da. Besides, the “OD280 lost on centrifugation” value in data set [2] (3000 rpm) is reported as “less than 5%”; in data set [2] (7000 rpm), “Approximately two-thirds”. Moreover, the weight-average molecular weight entry in data set [2] (7000 rpm, remaining heterogeneous material) was “about 69000”; in data set [2] (early scans, after 16 hours, 3000 rpm) it was “about 150,000”. In addition, the turbidity entry in data set [2] (initially dissolved in 20 mM NaH2PO4) is reported as “slightly turbid solution”. Moreover, in data set [2] (sedimentation equilibrium, diluted salt), the “aggregation state (in words)” value was “high molecular weight soluble aggregates with some monomer present”. The Hemolysis in data set [3] (2.5 µM) is 1.2±0.7%; in data set [3] (5 µM) it was 2.8±2.3%; in data set [3] (10 µM), 7.3±1.3%.
